# Reference: patent US20210196724A1, “BIARYL COMPOSITIONS AND METHODS FOR MODULATING A KINASE CASCADE” (Athenex, Inc., priority 2016, published 2021)
# Values joined by “and” are separate entries in the source; they are usually repeats but may differ in a detail not shown here. Identical values can stand only once.
# Key:
# GL261 cells = assay: MTT cell growth inhibition (GI50), GL261; assay type: cell-based, murine; conditions: 3 days
# Method: (§1) The drug concentration required to block net cell growth by 50% relative to a control sample is measured as the GI50. The GI50s for several of the compounds of the application were assayed as described.
# (§2) MTT assay: U87 and GL261 cells were seeded in 96-well plate (6×10^3 cells in 100 μl of DMEM+10% FBS media per well) and incubated overnight at 37° C. with 5% CO2. All test compounds were diluted (10 point 2-fold serial dilution) in a separate 96-well plate to yield 10× of final concentrations (0.5-256 nM). A volume of 11 μl of 10× dilutions was added to appropriate wells (n=3). To value (reflecting the starting number of cells upon drug treatment) was determined by following steps as described below. After 3 days incubation at 37° C. with 5% CO2, 10 μl of MTT solution (5 mg/ml in PBS) was added to each well and plates were incubated at 37° C. for 3 h to allow MTT to form formazan crystals by reacting with metabolically active cells. 100 μl of 20% SDS was added to each well and plates were incubated overnight at 37° C. with 5% CO2. Afterward, OD570 was measured using microplate reader. The cell growth percentage of control was calculated according to percentage of control=(T−T0)/(C−T0)×100% or OD value of the test well exposure to test drug—OD value at time zero/(OD of the control well without drug treatment−OD value at time zero)×100%. Growth inhibition curves and GI50 were determined using GraphPad Prism 5 software.
# U87 cells = assay: MTT cell growth inhibition (GI50), U87; assay type: cell-based, human; conditions: 3 days
# Method: as §1, §2
# HT-29 = assay: Cell growth inhibition (GI50), HT-29; assay type: cell-based; conditions: Homo sapiens, HT-29, HT-29
# Method: as §1
# [1] = Pharmacokinetic properties after IV and PO administration; assay type: in vivo; conditions: for AUCIV (dose-normalized) / t0.5 / C0 / clearance / Vd: IV Administration (5 mg/kg); for F (%) = 100 × AUCpo/AUCIV: PO 20 mg/kg vs IV 5 mg/kg; for AUCPO (dose-normalized) / Cmax: PO Administration (20 mg/kg); for C0 / clearance / Vd / Cmax: in vivo; for Vd: read-out: Vss
# [2] = Brain permeability (brain:plasma ratio); assay type: in vivo; conditions: read-out: Brain:Plasma (B:P) Average; for Kp at 0.25 h: time point 0.25 h; for Kp at 0.5 h: time point 0.5 h; for Kp at 1 h: time point 1 h; for Kp at 2 h: time point 2 h; for Kp at 4 h: time point 4 h; for Kp at 6 h: time point 6 h; for Kp at 8 h: time point 8 h
# Method: Brain permeability can be measured by various methods known in the art. For example, brain permeability can be measured by calculating the ratio between the concentration of a compound of the application in the brain and the concentration of the compound in the plasma (i.e., BP ratio). In one aspect, a compound of the application has a B:P ratio of at least 1.0, 1.1, 1.2, 1.3, 1.4, 1.5, 1.6, 1.7, 1.8, 1.9, or 2.0 at 1 hour after administration of the compound to a subject. In one aspect, a compound of the application has a B:P ratio of at least 1.5, 1.6, 1.7, 1.8, 1.9, or 2.0 at 1 hour after administration of the compound to a subject. In one aspect, a compound of the application has a B:P ratio of at least 1.4, 1.5, 1.6, 1.7, 1.8, 1.9, 2.0, 2.1, 2.2, or 2.3 at 2 hours after administration of the compound to a subject. In one aspect, a compound of the application has a B:P ratio of at least 1.9, 2.0, 2.1, 2.2, or 2.3 at 2 hours after administration of the compound to a subject. In one aspect, a compound of the application has a B:P ratio of at least 1.7, 1.8, 1.9, 2.0, 2.1, 2.2, 2.3, 2.4, or 2.5 at 4 hours after administration of the compound to a subject. In one aspect, a compound of the application has a B:P ratio of at least 2.2, 2.3, 2.4, or 2.5 at 4 hours after administration of the compound to a subject.
# [3] = system: GL261 glioblastoma cells injected intra-cranially; assay: GL261 murine model of glioblastoma (intra-cranial), survival; assay type: in vivo, C57BL/6 mice
# Method: The anti-tumor activity of Compound 121, as a single agent, was studied in the GL261 murine model of human glioblastoma. Murine GL261 glioblastoma cells were injected intra-cranially into syngeneic, immune-competent hosts (C57BL/6). In order for oral therapeutics to be effective, it is required that the therapeutic be able to cross the blood-brain barrier in order to achieve sufficient levels in the brain to exert an anti-tumor effect. Survival was the major endpoint for the study. The mice either succumbed to the tumor or were euthanized based on severity of tumor-dependent morbidity. Mice that achieved long-term survival (>80 days) were re-challenged with a sub-cutaneous injection of GL261 cells to assess the development of a durable immune response to GL261. Mice that underwent the re-challenge phase were not treated with Compound 121.
# GL261 cells (1×10^5 cells) were implanted into the brain of a C57BL/6 host using stereotactice injection. Compound 121 was dosed orally once per day at 1 mg/kg (N=10) for 45 days beginning 3 days post-tumor cell implantation. Compound Y was dosed orally once per day at 5 mg/kg (N=10) for 45 days beginning 3 days post-tumor implantation. A vehicle was administered to a control group of mice (N=10) per the same schedule.
# Mice were monitored for signs of tumor dependent morbidity, including head tilt, hunching, ataxia, and limb weakness. Mice were euthanized when cumulative signs of high tumor burden were evident.
Compound,GI50 (U87 cells),"GI50 (U87 cells; Homo sapiens, U-87 MG, 72 h) [nM]",GI50 (GL261 cells),"GI50 (GL261 cells; Mus musculus, GL261, 72 h) [nM]",also measured
C[C@H]1COCCN1c1ccc(-c2ccc(CC(=O)NCc3cccc(F)c3)nc2)cc1 [Compound 102],37 nM,25,42 nM,24,
Cc1cc(CC(=O)NCc2cccc(F)c2)ncc1-c1ccc(N2CCOC[C@H]2C)cc1 [Compound 110],,> 1020,,> 1020,
Cc1cc(CC(=O)NCc2ccccc2)ncc1-c1ccc(N2CCOC[C@@H]2C)cc1 [Compound 111],224 nM,239,170 nM,195,
Cc1nc(CC(=O)NCc2cccc(F)c2)ccc1-c1ccc(N2CCOC[C@@H]2C)cc1 [Compound 113],,,120 nM and 99 nM,180,GI50 (HT-29): 46 nM
Cc1nc(CC(=O)NCc2cccc(F)c2)ccc1-c1ccc(N2CCOC[C@H]2C)cc1 [Compound 114],,,500 nM,340,
Cc1nc(CC(=O)NCc2ccccc2)ccc1-c1ccc(N2CCOC[C@H]2C)cc1 [Compound 116],115 nM and 98 nM,120,90 nM and 74 nM,110,
Cc1cc(N2CCOC[C@@H]2C)ccc1-c1ccc(CC(=O)NCc2ccccn2)nc1 [Compound 119],233 nM and 224 nM,129,216 nM and 139 nM,164,
Cc1cc(N2CCOC[C@@H]2C)ccc1-c1ccc(CC(=O)NCc2ccccc2C#N)nc1 [Compound 123],,473,,456,
Cc1cc(N2CCOC[C@@H]2C)ccc1-c1ccc(CC(=O)NCc2cccc(C#N)c2)nc1 [Compound 124],,860,,1030,
COc1cc(N2CCOC[C@@H]2C)ccc1-c1ccc(CC(=O)NCc2ccccc2)nc1 [Compound 126],46 nM,41.9,38.6 nM,47.9,
COc1cc(N2CCOC[C@@H]2C)ccc1-c1ccc(CC(=O)NCc2ccccc2F)nc1 [Compound 127],,269,,207,
COc1cc(N2CCOC[C@@H]2C)ccc1-c1ccc(CC(=O)NCc2cccc(F)c2)nc1 [Compound 128],,377,,303,
"O=C(Cc1ccc(-c2ccc(N3CCOCC3)cc2)cn1)NCc1cccc(F)c1 [Compound Y, reference compound]",,,,,"AUCIV (dose-normalized) [1]: 553 kg·ng·h/mL/mg; t0.5 [1]: 0.364 h; F (%) = 100 × AUCpo/AUCIV [1]: 39.3%; AUCPO (dose-normalized) [1]: 217 kg·ng·h/mL/mg; C0 [1]: 4620 ng/mL; clearance [1]: 30.2 mL/min/kg; Vd [1]: 0.962 L/kg; Cmax [1]: 2590 ng/mL; Kp at 0.25 h [2]: 1.56; Kp at 0.5 h [2]: 1.46; Kp at 1 h [2]: 1.33; Kp at 2 h [2]: 0.712; Kp at 4 h [2]: 0.834; Kp at 6 h [2]: 0.633; Kp at 8 h [2]: 0.685; Activity in GL261 model ([3]; dosed once daily at >20 mg/kg): demonstrated activity; Effect on survival ([3]; orally once per day at 5 mg/kg for 45 days): only a marginal, insignificant effect on survival"

# More lines, main results first:
GI50 (U87 cells),"GI50 (U87 cells; Homo sapiens, U-87 MG, 72 h) [nM]",Compound,GI50 (GL261 cells),"GI50 (GL261 cells; Mus musculus, GL261, 72 h) [nM]",also measured
151 nM,203,C[C@H]1CN(c2ccc(-c3ccc(CC(=O)NCc4cccc(F)c4)nc3)cc2)CCO1 [Compound 100],127 nM,129,
,96,C[C@@H]1CN(c2ccc(-c3ccc(CC(=O)NCc4cccc(F)c4)nc3)cc2)CCO1 [Compound 101],,76,
,146,C[C@@H]1COCCN1c1ccc(-c2ccc(CC(=O)NCc3cccc(F)c3)nc2)cc1 [Compound 103],,113,
12.2 nM,10.8,Cc1cc(N2CCOC[C@H]2C)ccc1-c1ccc(CC(=O)NCc2ccccc2)nc1 [Compound 105],6.9 nM,5.7,
23.4 nM,22.1,Cc1cc(N2CCOC[C@@H]2C)ccc1-c1ccc(CC(=O)N[C@@H]2CCc3ccccc32)nc1 [Compound 107],28.3 nM,19.4,
,6.6,C[C@H]1COCCN1c1ccc(-c2ccc(CC(=O)NCc3ccccc3)nc2)cc1 [Compound 108],,6.8,GI50 (HT-29): 3 nM
,> 1020,Cc1cc(CC(=O)NCc2cccc(F)c2)ncc1-c1ccc(N2CCOC[C@@H]2C)cc1 [Compound 109],,> 1020,
401 nM,352,Cc1cc(CC(=O)NCc2ccccc2)ncc1-c1ccc(N2CCOC[C@H]2C)cc1 [Compound 112],240 nM,210,
15 nM and 15.6 nM,30,Cc1nc(CC(=O)NCc2ccccc2)ccc1-c1ccc(N2CCOC[C@@H]2C)cc1 [Compound 115],,,
,> 729,Cc1cc(N2CCOC[C@@H]2C)ccc1-c1ccc(CC(=O)NCc2ccncc2)nc1 [Compound 117],387 nM,488,
,621,Cc1cc(N2CCOC[C@@H]2C)ccc1-c1ccc(CC(=O)NCc2cccnc2)nc1 [Compound 118],,262,
22.3 nM and 18.4 nM and 17.7 nM and 18.6 nM,20.2,Cc1cc(N2CCOC[C@@H]2C)ccc1-c1ccc(CC(=O)NCc2ccccc2F)nc1 [Compound 120],13.6 nM and 18.9 nM and 15.8 nM and 13.4 nM and 10.7 nM,17,AUCIV (dose-normalized) [1]: 188 kg·ng·h/mL/mg; t0.5 [1]: 0.663 h; F (%) = 100 × AUCpo/AUCIV [1]: 40.9%; AUCPO (dose-normalized) [1]: 76.8 kg·ng·h/mL/mg; C0 [1]: 1590 ng/mL; clearance [1]: 88.7 mL/min/kg; Vd [1]: 3.63 L/kg; Cmax [1]: 798 ng/mL; Kp at 0.25 h [2]: 1.24; Kp at 0.5 h [2]: 1.39; Kp at 1 h [2]: 1.72; Kp at 2 h [2]: 1.38; Kp at 4 h [2]: 1.04; Kp at 6 h [2]: 0.82; Kp at 8 h [2]: 1.12
17.3 nM,24.7,Cc1cc(N2CCOC[C@@H]2C)ccc1-c1ccc(CC(=O)NCc2ccc(C#N)cc2)nc1 [Compound 122],18.9 nM,13.8,
230 nM,195,COc1ccccc1CNC(=O)Cc1ccc(-c2ccc(N3CCOC[C@@H]3C)cc2C)cn1 [Compound 125],158 nM,140,
38.1 nM,36,COc1cc(N2CCOC[C@@H]2C)ccc1-c1ccc(CC(=O)NCc2ccc(F)cc2)nc1 [Compound 129],30.3 nM,51.7,
135 nM,104,COc1cc(N2CCOC[C@@H]2C)ccc1-c1ccc(CC(=O)NCc2ccc(C#N)cc2)nc1 [Compound 130],107 nM,111,
